Experimental data taken from patent publication US20030144360A1, “Composition and method for modulating BAR/FXR receptor activity” (Allergan Sales, Inc., priority 2001, published 2003).
“And” between values parts separate entries of the source, which are not always exact repeats. Equal entries are not always repeated.

Molecular target: T1, MFXR / HRXRop (UniProt P19793+Q60641)
T1 sequence (Q60641 1-488): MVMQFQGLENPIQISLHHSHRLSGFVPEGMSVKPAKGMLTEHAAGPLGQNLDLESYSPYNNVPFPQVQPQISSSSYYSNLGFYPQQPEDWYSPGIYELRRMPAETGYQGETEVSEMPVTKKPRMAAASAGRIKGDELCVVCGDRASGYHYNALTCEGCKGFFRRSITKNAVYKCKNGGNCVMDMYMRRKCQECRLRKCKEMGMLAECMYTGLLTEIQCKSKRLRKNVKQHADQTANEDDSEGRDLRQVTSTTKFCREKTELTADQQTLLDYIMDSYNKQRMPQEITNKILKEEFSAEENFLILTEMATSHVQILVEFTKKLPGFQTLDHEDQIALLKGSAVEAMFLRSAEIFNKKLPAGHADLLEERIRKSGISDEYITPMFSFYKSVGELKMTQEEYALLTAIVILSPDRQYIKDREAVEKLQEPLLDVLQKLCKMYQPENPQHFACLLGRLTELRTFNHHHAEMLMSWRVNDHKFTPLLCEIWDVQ
T1 sequence (P19793 1-462): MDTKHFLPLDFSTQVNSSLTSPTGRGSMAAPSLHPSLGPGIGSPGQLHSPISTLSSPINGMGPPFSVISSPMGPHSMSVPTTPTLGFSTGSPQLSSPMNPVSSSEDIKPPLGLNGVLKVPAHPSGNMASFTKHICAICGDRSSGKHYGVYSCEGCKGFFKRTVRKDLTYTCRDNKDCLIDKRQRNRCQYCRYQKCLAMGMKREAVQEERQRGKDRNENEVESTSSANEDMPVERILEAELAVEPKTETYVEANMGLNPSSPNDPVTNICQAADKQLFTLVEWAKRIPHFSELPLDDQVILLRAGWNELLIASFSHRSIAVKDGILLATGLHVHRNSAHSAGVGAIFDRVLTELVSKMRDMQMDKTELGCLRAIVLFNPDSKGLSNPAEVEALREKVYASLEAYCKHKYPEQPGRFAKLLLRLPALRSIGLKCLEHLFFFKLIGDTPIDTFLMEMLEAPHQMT
Experiment: Co-transfection luciferase assay, EcRE × 6 reporter, MFXR + HRXRop;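 also: CV-1 African green monkey cells, liposome transfection with a β-galactosidase vector serving as internal control, luciferase chemiluminescence read after roughly 40 h compound exposure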
Method: CV-1 African Green Monkey cells were grown in Dulbecco's Modified Eagle's medium supplemented with 10% resin-charcoal stripped fetal bovine serum (FBS), 50 U/ml penicillin G and 50 μg/ml streptomycin sulfate (DMEM-FBS) at 37° C. in 5% CO2. One day prior to transfection, cells were plated to 50-80% confluence using phenol red-free DMEM-FBS. Cells were transiently transfected by lipofection as described in Forman et al., 81 Cell 687 (1995). Liposomes (N-[1-(2,3-dioleoyloxy)propyl]-N,N,N-ammonium methyl sulfate, sold by Boehringer Mannheim under the name DOTAP) were formed according to the manufacturer's instructions. The liposomes contained reporter gene constructs (300 ng/10^5 cells); cytomegalovirus driven expression vectors (25 ng/10^5 cells) were added as indicated along with CMX-Bgal (500 ng/10^5 cells) as an internal control. After 2 hours the liposomes were removed and replaced with fresh media. Cells were incubated for approximately 40 hours with phenol red-free DMEM-FBS containing the indicated compounds. After exposure to the specified ligand, the cells were harvested.
The harvested cells were assayed for the presence of luciferase activity. Cells were lysed in 0.1 M KPO4 (pH 7.8), 1.0% TRITON® X-100, 1.0 mM dithiolthreitol (DTT) and 2 mM ethylenediamine tetracetic acid (EDTA). Luciferase activity was measured by reaction of the cell lysates with luciferin in a reaction buffer comprising: 20 mM tricine, 1.07 mM Mg(CO3)4-Mg(OH)2-5H2O, 2.67 mM MgSO4.7H2O, 0.1 mM EDTA, 0.5 mM Sodium luciferin, 0.15 mg/ml Coenzyme A, 5 mM DTT, and 0.5 mM adenosine triphosphate (ATP). Resulting chemiluminescence was measured in a luminometer. […] All points were assayed in triplicate and varied by less than 15%. Each experiment was repeated three or more times with similar results.
As shown below, in most cases hRXRop was recombinantly coexpressed with one other of the indicated receptor constructs, so as to permit the formation of hetero-or homodimers containing hRXRop.
Expression of the luciferase reporter gene product was detected and quantified as described above.

CCCCCCOc1c(\C(C)=C/C=C/C(C)=C/C(=O)O)cc(C(C)C)cc1C(C)C [AGN 34, (2E, 4E, 6Z)-7-(2-Hexyloxy-3,5-diisopropylphenyl)-3-methylocta-2,4,6-trienoic Acid]
Fold Activation (0.1 μM LG268 + 0.01 μM AGN 34): 27.08 fold | Reporter Activity (0.1 μM LG268 + 0.01 μM AGN 34): 6.73 | Fold Activation (0.1 μM LG268 + 0.1 μM AGN 34): 1.56 fold | Reporter Activity (0.1 μM LG268 + 0.1 μM AGN 34): 0.39 | Fold Activation (0.1 μM LG268 + 1 μM AGN 34): 1.07 fold | Reporter Activity (0.1 μM LG268 + 1 μM AGN 34): 0.27 | Fold Activation (0.1 μM LG268 + 3 μM AGN 34): 1.04 fold | Reporter Activity (0.1 μM LG268 + 3 μM AGN 34): 0.26 | Fold Activation (0.1 μM LG268 + 10 μM AGN 34): 1.18 fold | Reporter Activity (0.1 μM LG268 + 10 μM AGN 34): 0.29 | Fold Activation (10 μM AGN 34 alone): 1.18 fold and 1.39 fold | Reporter Activity (10 μM AGN 34 alone): 0.26 and 0.35 | Fold Activation (50 μM CDCA + 0.01 μM AGN 34): 19.61 fold | Reporter Activity (50 μM CDCA + 0.01 μM AGN 34): 4.37 | Fold Activation (50 μM CDCA + 0.1 μM AGN 34): 10.99 fold | Reporter Activity (50 μM CDCA + 0.1 μM AGN 34): 2.45 | Fold Activation (50 μM CDCA + 1 μM AGN 34): 6.19 fold and 5.26 fold | Reporter Activity (50 μM CDCA + 1 μM AGN 34): 1.38 | Fold Activation (50 μM CDCA + 3 μM AGN 34): 5.77 fold | Reporter Activity (50 μM CDCA + 3 μM AGN 34): 1.29 | Fold Activation (50 μM CDCA + 10 μM AGN 34): 6.11 fold | Reporter Activity (50 μM CDCA + 10 μM AGN 34): 1.36
